Source: patent US9636307B2, “Oral pharmaceutical composition comprising taste-masked N-acetylcysteine” (HERMES ARZNEIMITTEL GMBH, priority 2013, dated 2017)

Tests used:
[1] = Stability testing of N-acetylcysteine by headspace gas chromatography; type: physicochemical
[2] = Decomposition during processing of the material (sulphurous smell); type: physicochemical; settings: between about 40 and 48° C. compared to working at above 50° C.; evident by reduced sulphurous smell

SMILES: CC(=O)N[C@@H](CS)C(=O)O [N-acetylcysteine, N-acetyl-L-cysteine]
- sulphur species detectable by headspace gas chromatography ([1]; sample subjected to 60° C. for 2 hours): two sulphurous species, acetyl mercaptane and s-ethyl ethanthioate, were detected
- sulphur species detectable by headspace gas chromatography ([1]; sample treated at 40° C. for 2 hours): no sulphur species are detectable
- decomposition of N-acetylcysteine [2]: notably suppressed
